Experimental data published in patent US8957096B2, “Herbicidally active oxime-ether-substituted benzoylamides” (Bayer Intellectual Property GmbH, priority 2011, dated 2015).

Legend:
Format in all cases: in vivo
Setaria viridis = assay: Pre-emergence herbicidal action against harmful plants; settings: 504 h, application rate 320 g/ha, assessed visually after 3 weeks vs untreated controls, read-out: herbicidal activity in percent (%)
Source text: (§1) 1. Pre-Emergence Herbicidal Action Against Harmful Plants Seeds of monocotyledonous and dicotyledonous weed plants and crop plants are placed in wood-fiber pots in sandy loam and covered with soil. The compounds according to the invention, formulated in the form of wettable powders (WP) or as emulsion concentrates (EC), are then applied as aqueous suspension or emulsion at a water application rate of 600 to 800 l/ha (converted) with the addition of 0.2% of wetting agent to the surface of the covering soil. After the treatment, the pots are placed in a greenhouse and kept under good growth conditions for the test plants. The damage to the test plants is assessed visually after a test period of 3 weeks by comparison with untreated controls (herbicidal activity in percent (%): 100% activity=the plants have died, 0% activity=like control plants). Here, the compounds Nos. 1-002, 1-004, 1-007, 1-008, 1-043, 1-044, 1-046, 1-047, 1-060, 1-079, 1-080, 1-082, 1-083, 1-085, 1-095, 1-096, 1-098, 1-099, 1-059, 2-015, 3-015, 3-018, 3-020, 4-001, 4-118, 5-004, 5-017, 5-043, 5-056, 5-082, 5-095, 6-017, 7-017, 8-017 and 8-014, for example, each show, at an application rate of 320 g/ha, an activity of at least 80% against Abuthilon theophrasti and Amaranthus retroflexus. The compounds Nos. 1-001, 1-005, 1-014, 1-015, 1-017, 1-018, 1-020, 1-033, 1-040, 1-041, 1-053, 1-054, 1-056, 1-057, 1-092, 1-093, 3-014, 3-015, 8-014, 8-017 and 8-015 each show, at an application rate of 320 g/ha, an activity of at least 80% against Setaria viridis and Stellaria media. The compounds Nos. 3-017, 4-092 and 6-004 show, at an application rate of 320 g/ha, an activity of at least 80% against Amaranthus retroflexus and Veronica persica.

Stellaria media [1] = assay: as above; settings: 504 h, application rate 320 g/ha, assessed visually after 3 weeks vs untreated controls, read-out: herbicidal activity in percent (%)
Source text: as §1

Amaranthus retroflexus [2] = assay: Post-emergence herbicidal action against harmful plants; settings: 504 h, application rate 80 g/ha, assessed visually after about 3 weeks vs untreated controls, read-out: herbicidal action in percent (%)
Method: (§2) 2. Post-Emergence Herbicidal Action Against Harmful Plants Seeds of monocotyledonous and dicotyledonous weed and crop plants are placed in sandy loam in wood-fiber pots, covered with soil and cultivated in a greenhouse under good growth conditions. 2 to 3 weeks after sowing, the test plants are treated at the one-leaf stage. The inventive compounds formulated in the form of wettable powders (WP) or as emulsion concentrates (EC) are then sprayed onto the green parts of the plants as an aqueous suspension or emulsion at a water application rate of 600 to 800 l/ha (converted) with addition of 0.2% wetting agent. After the test plants have been left to stand in the greenhouse under optimal growth conditions for about 3 weeks, the action of the formulations is assessed visually in comparison to untreated controls (herbicidal action in percent (%): 100% activity=the plants have died, 0% activity=like control plants). Here, the compounds Nos. 1-001, 1-002, 1-004, 1-005, 1-007, 1-008, 1-014, 1-015, 1-017, 1-018, 1-020, 1-033, 1-040, 1-041, 1-043, 1-044, 1-046, 1-047, 1-053, 1-054, 1-056, 1-057, 1-059, 1-060, 1-079, 1-080, 1-082, 1-083, 1-086, 1-092, 1-093, 1-095, 1-096, 1-098, 1-099, 2-015, 3-014, 3-015, 3-017, 3-018, 3-020, 5-082, 5-095, 6-017, 7-017 and 8-014 each show, at an application rate of 80 g/ha, an activity of at least 80% against Abuthilon theophrasti, Amaranthus retroflexus and Stellaria media. The compounds Nos. 4-092, 4-093, 5-004, 5-017, 5-043 and 5-056 each show, at an application rate of 80 g/ha, an activity of at least 80% against Echinocloa crus galli, Pharbitis purpureum and Stellaria media.

Abuthilon theophrasti [3] = assay: as above; settings: 504 h, application rate 80 g/ha, assessed visually after about 3 weeks vs untreated controls, read-out: herbicidal action in percent (%)
Method: as §2

Stellaria media [4] = assay: as above; settings: 504 h, application rate 80 g/ha, assessed visually after about 3 weeks vs untreated controls, read-out: herbicidal action in percent (%)
Method: as §2

Amaranthus retroflexus [5] = assay: Pre-emergence herbicidal action against harmful plants; settings: 504 h, application rate 320 g/ha, assessed visually after 3 weeks vs untreated controls, read-out: herbicidal activity in percent (%)
Source text: as §1

Abuthilon theophrasti [6] = assay: as above; settings: 504 h, application rate 320 g/ha, assessed visually after 3 weeks vs untreated controls, read-out: herbicidal activity in percent (%)
Source text: as §1

CCn1nnnc1NC(=O)c1ccc(S(C)(=O)=O)c(/C=N/OC)c1Cl [1-053]
≥ 80%: pest or weed control at 320 g/ha (Setaria viridis) | pest or weed control at 320 g/ha (Stellaria media [1]) | pest or weed control at 80 g/ha (Amaranthus retroflexus [2]) | pest or weed control at 80 g/ha (Abuthilon theophrasti [3]) | pest or weed control at 80 g/ha (Stellaria media [4])

CC(C)=NOCc1c(S(C)(=O)=O)ccc(C(=O)Nc2nnnn2C)c1Cl [5-017]
≥ 80%: pest or weed control at 320 g/ha (Amaranthus retroflexus [5]) | pest or weed control at 320 g/ha (Abuthilon theophrasti [6]) | pest or weed control at 80 g/ha (Stellaria media [4])

CCO/N=C/c1c(S(C)(=O)=O)ccc(C(=O)Nc2nnnn2CC)c1Cl [1-054]
≥ 80%: pest or weed control at 320 g/ha (Setaria viridis) | pest or weed control at 320 g/ha (Stellaria media [1]) | pest or weed control at 80 g/ha (Amaranthus retroflexus [2]) | pest or weed control at 80 g/ha (Abuthilon theophrasti [3]) | pest or weed control at 80 g/ha (Stellaria media [4])

CCCn1nnnc1NC(=O)c1ccc(Cl)c(/C=N/OC)c1Cl [1-079]
≥ 80%: pest or weed control at 320 g/ha (Amaranthus retroflexus [5]) | pest or weed control at 320 g/ha (Abuthilon theophrasti [6]) | pest or weed control at 80 g/ha (Amaranthus retroflexus [2]) | pest or weed control at 80 g/ha (Abuthilon theophrasti [3]) | pest or weed control at 80 g/ha (Stellaria media [4])

CCn1nnnc1NC(=O)c1ccc(Cl)c(CON=C(C)C)c1Cl [5-043]
≥ 80%: pest or weed control at 320 g/ha (Amaranthus retroflexus [5]) | pest or weed control at 320 g/ha (Abuthilon theophrasti [6]) | pest or weed control at 80 g/ha (Stellaria media [4])

CO/N=C/c1c(Cl)ccc(C(=O)Nc2nnnn2C)c1Cl [1-001]
≥ 80%: pest or weed control at 320 g/ha (Setaria viridis) | pest or weed control at 320 g/ha (Stellaria media [1]) | pest or weed control at 80 g/ha (Amaranthus retroflexus [2]) | pest or weed control at 80 g/ha (Abuthilon theophrasti [3]) | pest or weed control at 80 g/ha (Stellaria media [4])

CCCn1nnnc1NC(=O)c1ccc(S(C)(=O)=O)c(/C=N/OCC)c1Cl [1-093]
≥ 80%: pest or weed control at 320 g/ha (Setaria viridis) | pest or weed control at 320 g/ha (Stellaria media [1]) | pest or weed control at 80 g/ha (Amaranthus retroflexus [2]) | pest or weed control at 80 g/ha (Abuthilon theophrasti [3]) | pest or weed control at 80 g/ha (Stellaria media [4])

CCO/N=C/c1c(S(C)(=O)=O)ccc(C(=O)Nc2ncnn2C)c1Cl [2-015]
≥ 80%: pest or weed control at 320 g/ha (Amaranthus retroflexus [5]) | pest or weed control at 320 g/ha (Abuthilon theophrasti [6]) | pest or weed control at 80 g/ha (Amaranthus retroflexus [2]) | pest or weed control at 80 g/ha (Abuthilon theophrasti [3]) | pest or weed control at 80 g/ha (Stellaria media [4])

CO/N=C/c1c(Cl)ccc(C(=O)Nc2nnc(C)o2)c1Cl [4-001]
≥ 80%: pest or weed control at 320 g/ha (Amaranthus retroflexus [5]) | pest or weed control at 320 g/ha (Abuthilon theophrasti [6])

CC(C)=NOCc1c(S(C)(=O)=O)ccc(C(=O)Nc2nonc2C)c1Cl [7-017]
≥ 80%: pest or weed control at 320 g/ha (Amaranthus retroflexus [5]) | pest or weed control at 320 g/ha (Abuthilon theophrasti [6]) | pest or weed control at 80 g/ha (Amaranthus retroflexus [2]) | pest or weed control at 80 g/ha (Abuthilon theophrasti [3]) | pest or weed control at 80 g/ha (Stellaria media [4])

CCCn1nnnc1NC(=O)c1ccc(Cl)c(/C=N/OCC)c1Cl [1-080]
≥ 80%: pest or weed control at 320 g/ha (Amaranthus retroflexus [5]) | pest or weed control at 320 g/ha (Abuthilon theophrasti [6]) | pest or weed control at 80 g/ha (Amaranthus retroflexus [2]) | pest or weed control at 80 g/ha (Abuthilon theophrasti [3]) | pest or weed control at 80 g/ha (Stellaria media [4])

CCCn1nnnc1NC(=O)c1ccc(S(C)(=O)=O)c(CON=C(C)C)c1Cl [5-095]
≥ 80%: pest or weed control at 320 g/ha (Amaranthus retroflexus [5]) | pest or weed control at 320 g/ha (Abuthilon theophrasti [6]) | pest or weed control at 80 g/ha (Amaranthus retroflexus [2]) | pest or weed control at 80 g/ha (Abuthilon theophrasti [3]) | pest or weed control at 80 g/ha (Stellaria media [4])

CC(C)=NOCc1c(Cl)ccc(C(=O)Nc2nnnn2C)c1Cl [5-004]
≥ 80%: pest or weed control at 320 g/ha (Amaranthus retroflexus [5]) | pest or weed control at 320 g/ha (Abuthilon theophrasti [6]) | pest or weed control at 80 g/ha (Stellaria media [4])

CCO/N=C/c1c(Cl)ccc(C(=O)Nc2nnnn2CC)c1Cl [1-041]
≥ 80%: pest or weed control at 320 g/ha (Setaria viridis) | pest or weed control at 320 g/ha (Stellaria media [1]) | pest or weed control at 80 g/ha (Amaranthus retroflexus [2]) | pest or weed control at 80 g/ha (Abuthilon theophrasti [3]) | pest or weed control at 80 g/ha (Stellaria media [4])

CC(C)=NOCc1c(S(C)(=O)=O)ccc(C(=O)Nc2ncnn2C)c1Cl [6-017, 2-chloro-4-(methylsulfonyl)-N-(1-methyl-1H-1,2,4-triazol-5-yl)-3-{[(propan-2-ylideneamino)oxy]methyl}benzamide]
≥ 80%: pest or weed control at 320 g/ha (Amaranthus retroflexus [5]) | pest or weed control at 320 g/ha (Abuthilon theophrasti [6]) | pest or weed control at 80 g/ha (Amaranthus retroflexus [2]) | pest or weed control at 80 g/ha (Abuthilon theophrasti [3]) | pest or weed control at 80 g/ha (Stellaria media [4])

CC=NOCc1c(S(C)(=O)=O)ccc(C(=O)Nc2nnc(C)o2)c1Cl [8-015]
≥ 80%: pest or weed control at 320 g/ha (Setaria viridis) | pest or weed control at 320 g/ha (Stellaria media [1])

CCCn1nnnc1NC(=O)c1ccc(Cl)c(CON=C(C)C)c1Cl [5-082]
≥ 80%: pest or weed control at 320 g/ha (Amaranthus retroflexus [5]) | pest or weed control at 320 g/ha (Abuthilon theophrasti [6]) | pest or weed control at 80 g/ha (Amaranthus retroflexus [2]) | pest or weed control at 80 g/ha (Abuthilon theophrasti [3]) | pest or weed control at 80 g/ha (Stellaria media [4])

CCn1nnnc1NC(=O)c1ccc(S(C)(=O)=O)c(CON=C(C)C)c1Cl [5-056]
≥ 80%: pest or weed control at 320 g/ha (Amaranthus retroflexus [5]) | pest or weed control at 320 g/ha (Abuthilon theophrasti [6]) | pest or weed control at 80 g/ha (Stellaria media [4])

CCn1nnnc1NC(=O)c1ccc(Cl)c(/C=N/OC)c1Cl [1-040]
≥ 80%: pest or weed control at 320 g/ha (Setaria viridis) | pest or weed control at 320 g/ha (Stellaria media [1]) | pest or weed control at 80 g/ha (Amaranthus retroflexus [2]) | pest or weed control at 80 g/ha (Abuthilon theophrasti [3]) | pest or weed control at 80 g/ha (Stellaria media [4])

CCO/N=C/c1c(Cl)ccc(C(=O)Nc2nnnn2C)c1Cl [1-002]
≥ 80%: pest or weed control at 320 g/ha (Amaranthus retroflexus [5]) | pest or weed control at 320 g/ha (Abuthilon theophrasti [6]) | pest or weed control at 80 g/ha (Amaranthus retroflexus [2]) | pest or weed control at 80 g/ha (Abuthilon theophrasti [3]) | pest or weed control at 80 g/ha (Stellaria media [4])

CCCn1nnnc1NC(=O)c1ccc(S(C)(=O)=O)c(/C=N/OC)c1Cl [1-092]
≥ 80%: pest or weed control at 320 g/ha (Setaria viridis) | pest or weed control at 320 g/ha (Stellaria media [1]) | pest or weed control at 80 g/ha (Amaranthus retroflexus [2]) | pest or weed control at 80 g/ha (Abuthilon theophrasti [3]) | pest or weed control at 80 g/ha (Stellaria media [4])

CCO/N=C/c1c(S(C)(=O)=O)ccc(C(=O)Nc2nnnn2C)c1Cl [1-015]
≥ 80%: pest or weed control at 320 g/ha (Setaria viridis) | pest or weed control at 320 g/ha (Stellaria media [1]) | pest or weed control at 80 g/ha (Amaranthus retroflexus [2]) | pest or weed control at 80 g/ha (Abuthilon theophrasti [3]) | pest or weed control at 80 g/ha (Stellaria media [4])

CC(C)=NOCc1c(Cl)ccc(C(=O)Nc2ncnn2C)c1Cl [6-004]
≥ 80%: pest or weed control at 320 g/ha (Amaranthus retroflexus [5])
